{
  "source": "patent US4877795A",
  "about": "“4H-quinolizin-4-one compounds useful for the treatment of allergic bronchial asthma, allergic rhinitis atropic dermatitis and the like” (Kissei Pharmaceutical Co., Ltd., priority 1987, dated 1989)",
  "key": {"IgE": {"system": "IgE", "assay": "Determination of Igs produced in in vitro culture: inhibition of IgE secreted by spleen cells (adoptive secondary immune response to DNP-As), ELISA", "type": "cell-based, BALB/c mice", "conditions": "Mus musculus, 96 h, 4 days culture; for inhibition at 40 µg/mL: 40.0 μg/ml; for inhibition at 0.25 µg/mL: 0.25 μg/ml; for inhibition at 1 µg/mL: 1.0 μg/ml; for inhibition at 5 µg/mL: 5.0 μg/ml; for inhibition at 2.5 µg/mL: 2.5 μg/ml; for inhibition at 20 µg/mL: 20.0 μg/ml", "procedure,_shortened": "(§1)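 Donor BALB/c mice primed i.p. with 5 μg DNP-As on alum; 5×10^7 spleen cells transferred i.v. into 600-rad-irradiated recipients, boosted likewise. After 4 weeks, recipient spleen cells (5×10^6 cells/ml) cultured ± compound 4 days at 37° C; secreted IgG/IgE quantified by ELISA, % inhibition vs untreated culture.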"}, "IgG": {"system": "IgG", "assay": "Determination of Igs produced in in vitro culture: inhibition of IgG secreted by spleen cells (adoptive secondary immune response to DNP-As), ELISA", "type": "cell-based, BALB/c mice", "conditions": "Mus musculus, 96 h, 4 days culture; for inhibition at 40 µg/mL: 40.0 μg/ml; for inhibition at 0.25 µg/mL: 0.25 μg/ml; for inhibition at 1 µg/mL: 1.0 μg/ml; for inhibition at 5 µg/mL: 5.0 μg/ml; for inhibition at 2.5 µg/mL: 2.5 μg/ml; for inhibition at 20 µg/mL: 20.0 μg/ml", "procedure,_shortened": "as §1"}},
  "data": [
    {"smiles": "CSc1c(C#N)c(=O)n2ccccc2c1C(=O)OC(C)c1ccccc1", "note": "(stereo not drawn) [S-24, 1'-Phenylethyl 3-cyano-2-methylthio-4H-quinolizin-4-one-1-carboxylate]", "values": [
      {"measurement": "inhibition at 40 µg/mL", "setting": "IgE", "result": 77, "unit": "%"},
      {"measurement": "inhibition at 40 µg/mL", "setting": "IgG", "result": 54, "unit": "%"}
    ]},
    {"smiles": "N#Cc1c(SCc2ccccc2)c(C(=O)N2CCC(c3ccccc3)CC2)c2ccccn2c1=O", "note": "(single isomer, unassigned) [S-83B, 2-Benzylthio-3-cyano-1-(4-phenylpiperidinocarbonyl)-4H-quinolizin-4-one]", "values": [
      {"measurement": "inhibition at 0.25 µg/mL", "setting": "IgE", "result": 41, "unit": "%"},
      {"measurement": "inhibition at 0.25 µg/mL", "setting": "IgG", "result": 10, "unit": "%"}
    ]},
    {"smiles": "CSc1c(C#N)c(=O)n2ccccc2c1C(=O)N1CCCCC1", "note": "[S-79, 3-Cyano-2-methylthio-1-piperidinocarbonyl-4H-quinolizin-4-one]", "values": [
      {"measurement": "inhibition at 40 µg/mL", "setting": "IgE", "result": 59, "unit": "%"},
      {"measurement": "inhibition at 40 µg/mL", "setting": "IgG", "result": 13, "unit": "%"}
    ]},
    {"smiles": "CSc1c(C#N)c(=O)n2ccccc2c1C(=O)OCC(Cl)(Cl)Cl", "note": "[S-4, 2',2',2'-Trichloroethyl 3-cyano-2-methylthio-4H-quinolizin-4-one-1-carboxylate]", "values": [
      {"measurement": "inhibition at 1 µg/mL", "setting": "IgE", "result": 68, "unit": "%"},
      {"measurement": "inhibition at 1 µg/mL", "setting": "IgG", "result": 39, "unit": "%"}
    ]},
    {"smiles": "CSc1c(C#N)c(=O)n2ccccc2c1C(=O)OCc1ccc(-c2ccccc2)cc1", "note": "[S-40, 4'-phenylbenzyl 3-cyano-2-methylthio-4H-quinolizin-4-one-1-carboxylate]", "values": [
      {"measurement": "inhibition at 0.25 µg/mL", "setting": "IgE", "result": 53, "unit": "%"},
      {"measurement": "inhibition at 0.25 µg/mL", "setting": "IgG", "result": 34, "unit": "%"}
    ]},
    {"smiles": "CSc1c(C#N)c(=O)n2ccccc2c1C(=O)OC1CCCCCC1", "note": "[S-19, Cycloheptyl 3-cyano-2-methylthio-4H-quinolizin-4-one-1-carboxylate]", "values": [
      {"measurement": "inhibition at 5 µg/mL", "setting": "IgE", "result": 71, "unit": "%"},
      {"measurement": "inhibition at 5 µg/mL", "setting": "IgG", "result": 27, "unit": "%"}
    ]},
    {"smiles": "CSc1c(C#N)c(=O)n2ccccc2c1C(=O)OC1CCCCC1", "note": "[S-14, Cyclohexyl 3-cyano-2-methylthio-4H-quinolizin-4-one-1-carboxylate]", "values": [
      {"measurement": "inhibition at 1 µg/mL", "setting": "IgE", "result": 69, "unit": "%"},
      {"measurement": "inhibition at 1 µg/mL", "setting": "IgG", "result": 39, "unit": "%"}
    ]},
    {"smiles": "CSc1c(C#N)c(=O)n2ccccc2c1C(=O)N1CCC(Cc2ccccc2)CC1", "note": "(single isomer, unassigned) [S-82A, 1-(4-Benzylpiperidinocarbonyl)-3-cyano-2-methylthio-4H-quinolizin-4-one]", "values": [
      {"measurement": "inhibition at 1 µg/mL", "setting": "IgE", "result": 43, "unit": "%"},
      {"measurement": "inhibition at 1 µg/mL", "setting": "IgG", "result": 18, "unit": "%"}
    ]},
    {"smiles": "CSc1c(C#N)c(=O)n2ccccc2c1C(=O)OCCSc1ccccc1", "note": "[S-55, 2'-Phenylthioethyl 3-cyano-2-methylthio-4H-quinolizin-4-one-1-carboxylate]", "values": [
      {"measurement": "inhibition at 0.25 µg/mL", "setting": "IgE", "result": 51, "unit": "%"},
      {"measurement": "inhibition at 0.25 µg/mL", "setting": "IgG", "result": 29, "unit": "%"}
    ]},
    {"smiles": "CSc1c(C#N)c(=O)n2ccccc2c1C(=O)OCCCCc1ccccc1", "note": "[S-49, 4'-Phenylbutyl 3-cyano-2-methylthio-4H-quinolizin-4-one-1-carboxylate]", "values": [
      {"measurement": "inhibition at 1 µg/mL", "setting": "IgE", "result": 80, "unit": "%"},
      {"measurement": "inhibition at 1 µg/mL", "setting": "IgG", "result": 56, "unit": "%"}
    ]},
    {"smiles": "CSc1c(C#N)c(=O)n2ccccc2c1C(=O)OCC1CC1", "note": "[S-2, Cyclopropylmethyl 3-cyano-2-methylthio-4H-quinolizin-4-one-1-carboxylate]", "values": [
      {"measurement": "inhibition at 5 µg/mL", "setting": "IgE", "result": 51, "unit": "%"},
      {"measurement": "inhibition at 5 µg/mL", "setting": "IgG", "result": 27, "unit": "%"}
    ]},
    {"smiles": "CSc1c(C#N)c(=O)n2ccccc2c1C(=O)N(C(C)C)C(C)C", "note": "[S-63, 3-Cyano-N,N-diisopropyl-2-methylthio-4H-quinolizin-4-one-1-carboxamide]", "values": [
      {"measurement": "inhibition at 40 µg/mL", "setting": "IgE", "result": 85, "unit": "%"},
      {"measurement": "inhibition at 40 µg/mL", "setting": "IgG", "result": 47, "unit": "%"}
    ]},
    {"smiles": "CSc1c(C#N)c(=O)n2ccccc2c1C(=O)Cc1cccc(C)c1", "note": "[S-97, 3-Cyano-1-(3-methylphenylacetyl)-2-methylthio-4H-quinolizin-4-one]", "values": [
      {"measurement": "inhibition at 2.5 µg/mL", "setting": "IgE", "result": 46, "unit": "%"},
      {"measurement": "inhibition at 2.5 µg/mL", "setting": "IgG", "result": 18, "unit": "%"}
    ]},
    {"smiles": "C=CCOC(=O)c1c(SC)c(C#N)c(=O)n2ccccc12", "note": "[S-5, 2'-Propenyl 3-cyano-2-methylthio-4H-quinolizin-4-one-1-carboxylate]", "values": [
      {"measurement": "inhibition at 20 µg/mL", "setting": "IgE", "result": 77, "unit": "%"},
      {"measurement": "inhibition at 20 µg/mL", "setting": "IgG", "result": 47, "unit": "%"}
    ]},
    {"smiles": "CSc1c(C#N)c(=O)n2ccccc2c1C(=O)N1CCN(Cc2ccccc2)CC1", "note": "[S-90, 1-(4-Benzyl-1-piperadinylcarbonyl)-3-cyano-2-methylthio-4H-quinolizin-4-one]", "values": [
      {"measurement": "inhibition at 5 µg/mL", "setting": "IgE", "result": 45, "unit": "%"},
      {"measurement": "inhibition at 5 µg/mL", "setting": "IgG", "result": 14, "unit": "%"}
    ]},
    {"smiles": "CCCOC(=O)c1c(SC)c(C#N)c(=O)n2ccccc12", "note": "[S-7, Propyl 3-cyano-2-methylthio-4H-quinolizin-4-one-1-carboxylate]", "values": [
      {"measurement": "inhibition at 40 µg/mL", "setting": "IgE", "result": 52, "unit": "%"},
      {"measurement": "inhibition at 40 µg/mL", "setting": "IgG", "result": 24, "unit": "%"}
    ]},
    {"smiles": "CSc1c(C#N)c(=O)n2ccc(C)cc2c1C(=O)OCCCc1ccccc1", "note": "[S-51, 3'-Phenylpropyl 3-cyano-8methyl-2-methylthio-4H-quinolizin-4-one-1-carboxylate]", "values": [
      {"measurement": "inhibition at 1 µg/mL", "setting": "IgE", "result": 65, "unit": "%"},
      {"measurement": "inhibition at 1 µg/mL", "setting": "IgG", "result": 43, "unit": "%"}
    ]},
    {"smiles": "CSc1c(C#N)c(=O)n2ccccc2c1C(=O)OC1CCCc2ccccc21", "note": "(stereo not drawn) [S-22, 1',2',3',4'-Tetrahydro-1'-naphthyl 3-cyano-2-methylthio-4H-quinolizin-4-one-1-carboxylate]", "values": [
      {"measurement": "inhibition at 40 µg/mL", "setting": "IgE", "result": 82, "unit": "%"},
      {"measurement": "inhibition at 40 µg/mL", "setting": "IgG", "result": 42, "unit": "%"}
    ]},
    {"smiles": "CSc1c(C#N)c(=O)n2ccccc2c1C(=O)OC(C)c1ccc(C#N)cc1", "note": "(stereo not drawn) [S-32, 1'-(4-Cyanophenyl)ethyl 3-cyano-2-methylthio-4H-quinolizin-4-one-1-carboxylate]", "values": [
      {"measurement": "inhibition at 1 µg/mL", "setting": "IgE", "result": 52, "unit": "%"},
      {"measurement": "inhibition at 1 µg/mL", "setting": "IgG", "result": 28, "unit": "%"}
    ]},
    {"smiles": "CSc1c(C#N)c(=O)n2ccccc2c1C(=O)Cc1ccccc1", "note": "[S-95, 3-Cyano-2-methylthio-1-phenylacetyl-4H-quinolizin-4-one]", "values": [
      {"measurement": "inhibition at 20 µg/mL", "setting": "IgE", "result": 70, "unit": "%"},
      {"measurement": "inhibition at 20 µg/mL", "setting": "IgG", "result": 47, "unit": "%"}
    ]},
    {"smiles": "CSc1c(C#N)c(=O)n2ccccc2c1C(=O)CCc1ccccc1", "note": "[S-104, 3-Cyano-2-methylthio-1-(3-phenylpropionyl)-4H-quinolizin-4-one]", "values": [
      {"measurement": "inhibition at 2.5 µg/mL", "setting": "IgE", "result": 66, "unit": "%"},
      {"measurement": "inhibition at 2.5 µg/mL", "setting": "IgG", "result": 39, "unit": "%"}
    ]},
    {"smiles": "CSc1c(C#N)c(=O)n2ccccc2c1C(=O)OCCc1ccccc1", "note": "[S-48, 2'-Phenylethyl 3-cyano-2-methylthio-4H-quinolizin-4-one-1-carboxylate]", "values": [
      {"measurement": "inhibition at 1 µg/mL", "setting": "IgE", "result": 57, "unit": "%"},
      {"measurement": "inhibition at 1 µg/mL", "setting": "IgG", "result": 15, "unit": "%"}
    ]},
    {"smiles": "CSc1c(C#N)c(=O)n2ccccc2c1C(=O)OCc1ccc2c(c1)OCO2", "note": "[S-26, Piperonyl 3-cyano-2-methylthio-4H-quinolizin-4-one-1-carboxylate]", "values": [
      {"measurement": "inhibition at 40 µg/mL", "setting": "IgE", "result": 48, "unit": "%"},
      {"measurement": "inhibition at 40 µg/mL", "setting": "IgG", "result": 17, "unit": "%"}
    ]},
    {"smiles": "COc1ccc(COC(=O)c2c(SC)c(C#N)c(=O)n3ccccc23)cc1", "note": "[S-31, 4'-Methoxybenzyl 3-cyano-2-methylthio-4H-quinolizin-4-one-1-carboxylate]", "values": [
      {"measurement": "inhibition at 40 µg/mL", "setting": "IgE", "result": 34, "unit": "%"},
      {"measurement": "inhibition at 40 µg/mL", "setting": "IgG", "result": 3, "unit": "%"}
    ]}
  ]
}
